{
  "source": "patent US12186328B2",
  "about": "“Use of CSA compounds to stimulate stem cells and hair growth” (Brigham Young University, priority 2019, dated 2025)",
  "key": {"[1]": {"tested_on": "hair growth on depilated dorsal skin of C57BL/6 mice", "experiment": "Mouse model of hair regrowth after shaving and depilation, topical CSA-44 cream", "format": "in vivo, mice (C57BL/6)", "details": "for Percentage Change in Hair growth: Day 21, compared with vehicle treated control group; for Hair growth scoring Day 1 / Hair growth scoring Day 3 / Hair growth scoring Day 7 / Hair growth scoring Day 10 / Hair growth scoring Day 14 / Hair growth scoring Day 17: Mean ± SE, n = 8, score 0-10", "source_text": "A mouse model was used to test the effectiveness of a CSA-based treatment composition in stimulating stem cells and regenerating hair growth. Male C57BL/6 mice aged 8 weeks, were housed under environmentally monitored conditions and were fed a standard rodent diet. The hair on the dorsal surface of each mouse was shaved with an animal clipper, which was then followed by application of a depilatory cream to clean the remaining hair as described by Jung M K et al (Life Sci. 2015 May 1; 128:39-46). The mice were then allowed to rest for 24 h.\nOn the day of experiment, all the animals were weighed and randomized into different treatment groups (n=8) according to body weight. Randomized animals were identified by individual animal marking and cage cards were used for group identification.\nThe animals of Group 1, the control mice, were treated topically with the cream-based vehicle. The animals of Group 2 were treated topically with 100 mg of […] once daily for 3 weeks. The animals in Group 3 were treated topically with 100 mg of 2.0% CSA-44 test compound once every other day for 3 weeks.\nA preliminary tolerability study was conducted in C57BL/6 mice for selecting an appropriate well tolerated dose for the present efficacy study. Based on the results from the preliminary dose tolerability study, 100 mg of a formulation containing 0.5% CSA-44 was uniformly applied topically on the shaven areas of the dorsal skin once daily for 3 weeks. Similarly, 100 mg of 2% CSA-44 formulation was applied topically every other day for 3 weeks. 100 mg of cream vehicle was applied topically on the shaved areas once daily for 3 weeks.\nThe hair-growth score was evaluated using the scoring pattern below as described by Vegesna et al (Endocrinology 143(11):4389-4396). A score of ‘0’ indicates no change in the amount of hair growth compared with the hair-loss induction day and a score of ‘10’ indicates full hair growth on the entire site on the dorsal skin. Darkening and hair-growth rate was monitored twice weekly for 3 weeks. Images of the dorsal skin of the mice were captured using a digital camera at weekly intervals to notice the start of hair regrowth period and the hair regrowth pattern.\nBody weight of the animals were recorded once prior to randomization (pre dose) and twice weekly during the course of the study. All animals were observed once daily for clinical signs and twice daily (morning and evening) for mortality and morbidity. No mortality was observed during the study period. Animals were sacrificed at the end of the study period by following a standard protocol using CO2 induced euthanasia. Results\nHair growth score and body weight were recorded twice weekly during the study period. The percentage (%) change in hair growth was calculated on Day 21 by comparing the treated mice with the vehicle treated control group."}, "[2]": {"tested_on": "hair loss associated with a dermal fungal infection", "experiment": "Horse with \"summer itch\" hair loss treated with a composition including CSA-44", "format": "in vivo", "source_text": "A treatment composition including CSA-44 was applied to a horse having a “summer itch” condition associated with a dermal fungal infection. […] As shown, the subject horse had several patches of visible hair loss. […] As shown, hair had regrown to completely fill in the previous patches and the regrown hair was thick and full. Typical time for hair to grow back on a horse following treatment of such a fungal infection is approximately 28 days. The CSA-based treatment therefore regenerated hair growth 1.56 times faster than a conventional treatment."}, "[3]": {"details": "0.5% CSA-44, topical, once daily for 3 weeks"}, "[4]": {"details": "2% CSA-44, topical, once every other day for 3 weeks"}},
  "data": [
    {"smiles": "CCCCCCCCOC(=O)CC[C@@H](C)[C@H]1CC[C@H]2[C@@H]3[C@H](OC(=O)CCN)C[C@@H]4C[C@H](OC(=O)CCN)CC[C@]4(C)[C@H]3C[C@H](OC(=O)CCN)[C@]12C", "note": "[CSA-44]", "values": [
      {"measurement": "Percentage Change in Hair growth", "setting": "[1]; [3]", "value": 72, "unit": "%"},
      {"measurement": "Hair growth scoring Day 1", "setting": "[1]; [3]", "value": 0.00},
      {"measurement": "Hair growth scoring Day 3", "setting": "[1]; [3]", "value": 0.25},
      {"measurement": "Hair growth scoring Day 7", "setting": "[1]; [3]", "value": 0.50},
      {"measurement": "Hair growth scoring Day 10", "setting": "[1]; [3]", "value": 1.38},
      {"measurement": "Hair growth scoring Day 14", "setting": "[1]; [3]", "value": 2.63},
      {"measurement": "Hair growth scoring Day 17", "setting": "[1]; [3]", "value": 4.88},
      {"measurement": "Percentage Change in Hair growth", "setting": "[1]; [4]", "value": 66, "unit": "%"},
      {"measurement": "Hair growth scoring Day 1", "setting": "[1]; [4]", "value": 0.00},
      {"measurement": "Hair growth scoring Day 3", "setting": "[1]; [4]", "value": 0.38},
      {"measurement": "Hair growth scoring Day 7", "setting": "[1]; [4]", "value": 0.50},
      {"measurement": "Hair growth scoring Day 10", "setting": "[1]; [4]", "value": 1.50},
      {"measurement": "Hair growth scoring Day 14", "setting": "[1]; [4]", "value": 2.50},
      {"measurement": "Hair growth scoring Day 17", "setting": "[1]; [4]", "value": 4.13},
      {"measurement": "Skin area with black hair compared with control group", "setting": "[1]; CSA-44 treated groups, end of 3 weeks", "value": "larger"},
      {"measurement": "Hair growth regeneration speed versus conventional treatment", "setting": "[2]; 18 days versus typical approximately 28 days", "value": 1.56, "unit": "times faster"},
      {"measurement": "Treatment time after which hair had regrown to completely fill in the previous patches", "setting": "[2]; horse, composition including CSA-44", "value": 18, "unit": "days"}
    ]}
  ]
}
